{"source": "patent EP4789666A1", "about": "“RNA M6A REGULATOR COMPOSITION, PREPARATION METHOD THEREFOR, AND USE THEREOF” (SHANGHAI MERNA THERAPEUTICS CO. LTD, priority 2023, dated 2025)", "key": {"[1]": {"system": "human HaCaT keratinocytes", "test": "m6A methylation level of human keratinocytes (EpiQuik m6A RNA methylation quantification kit)", "type": "cell-based", "conditions": "24 hours, relative to control group 1", "protocol": "HaCaT cells were cultured in DMEM culture medium containing 10% fetal bovine serum, 100 U/mL penicillin, and 100 µg/mL streptomycin. Culture dishes were placed in an incubator containing 5% CO2 for culture at 37°C for 24 hours. An equal volume of DMSO was added in control group 1, 50 nM sorafenib, capecitabine, docetaxel, and osimertinib were respectively added in control groups A, B, C, and D, and 400 nM test compounds or nicotinamide were respectively added in sample groups A1, A2, B1, B2, C1, C2, D1, and D2 after the addition of 50 nM corresponding compounds. The cells were continuously cultured for 24 hours, washed with PBS, and then collected by high-speed centrifugation. Total RNA was extracted using Trizol reagent (Sigma Aldrich), and RNA m6A methylation of a sample was quantitatively detected using an EpiQuik m6A RNA methylation quantification kit. The concentrations of positive control samples for a standard curve were 0.01 ng/µl, 0.02 ng/µl, 0.05 ng/µl, 0.1 ng/µl, 0.2 ng/µl, and 0.5 ng/µl. The absorbance at 450 nm was read using a microplate reader (Tecan GENios). A quantitative calculation formula for m6A is as follows: m6A (ng) = (absorbanceofsamplewell-absorbanceofbackgroundwell)/slope of standard curve [formula] m6A (%) = m6A (ng)/RNA amount of sample (ng)*100%. [formula]\nTable 1: Fold change in m6A methylation level relative to control group 1"}, "[2]": {"system": "rat models with hand-foot skin reaction", "test": "Rat models with hand-foot skin reaction, topical ointment (incidence rate, histology, immunohistochemistry)", "type": "in vivo, SD rats", "conditions": "for Incidence rate, left paw: once daily 30 days; for Incidence rate, right paw: right paw with blank matrix ointment (self-control)", "protocol": "After adaptive feeding for one week, SD rats (with a body weight of approximately 200 g) were randomly divided into groups with balanced body weight, with 12 rats in each group. Modeling drugs (including sorafenib, erlotinib, afatinib, and osimertinib) were respectively dissolved in a solution containing 5% of DMSO, 45% of PEG400, and 50% of H2O, and the modeling drugs were diluted to required concentrations and then administered once daily by gavage at doses shown in Table 3. After administration by gavage for 1 hour, 0.05 g of ointments containing different mass proportions of test compounds were evenly applied to left paws of the rats, a blank matrix ointment was applied to right paws of the rats to serve as a self-control, and no ointment was applied to the rats in a blank control group. After drug application, four limbs were continuously immobilized for 2 hours, then wiped with clean water to remove the residual drugs, removed from immobilization, and restored to free movement. The modeling drugs, the blank matrix ointment, and the ointments containing the test compounds were all administered once daily. After continuous administration for 30 days, the rats were euthanized, and paw plantar skin tissues were collected, fixed in 10% neutral formalin, […]. The ointments for the test compounds were prepared by mixing the compounds, white beeswax, white petrolatum, and light liquid paraffin in specific ratios (weight ratios of 3 ointments were respectively 1:18:58:23, 3:18:57:22, and 10:20:40:30). The blank matrix ointment was prepared by mixing white beeswax, white petrolatum, and light liquid paraffin in a specific ratio (weight ratio of 18:60:22).\nTissue staining: After dewaxing and rehydration, the paw plantar skin tissue sections of the above rats were stained in a hematoxylin solution for several minutes, cleaned, and placed in 1% acid alcohol for soaking until the sections faded to light blue-red. After cleaning with running water for 5 minutes, the sections were stained with eosin for 2-3 minutes, cleaned to remove excess dyes, dehydrated, then permeabilized by adding xylene for several minutes, and sealed and fixed with a neutral resin. The stratum corneum was observed under an optical microscope, and the thickness of the epidermal stratum corneum was measured using Dmetrix software.\nImmunohistochemical staining: After dewaxing and hydration, the paw plantar skin tissue sections of the above rats were incubated with 3% H2O2 at room temperature for 30 minutes and blocked with 10% goat serum for 30 minutes after antigen retrieval. A KRT1 antibody (Abcam, ab93652) and a Loricrin antibody (Abcam, ab183646) were added dropwise, the sections were incubated overnight at 4°C, and an HRP secondary antibody (ZSGB-BIO, PV-6001) and a DAB kit (ZSG-BIO, ZLI9017) were added for color development. The sections were re-stained with hematoxylin, cleaned, and sealed and fixed with a neutral resin, and the expression amounts of KRT1 and Loricrin were observed under an optical microscope.\nAn incidence rate calculation method involves a proportion of animals in each group meeting the above criteria for determining successful modeling, that is, incidence rate = (number of successfully modeled rats/total number of rats in the group)*100%. […]"}, "[3]": {"test": "Pharmacokinetic study after single topical administration of ointment to the skin of SD rats (LC-MS/MS)", "type": "in vivo", "conditions": "rat, 20 mg/cm^2, SD rats, 20 mg/cm^2, 20 cm^2, mean", "protocol": "6 SD rats were divided into two groups, with 3 rats per group, where one group received an ointment containing the compound of formula (I) by single topical application to the dorsal skin at 20 mg/cm^2 (3% suspension ointment), with an application area of 20 cm^2, and the other group received an ointment containing the compound of formula (I) by single topical application to the dorsal skin at 20 mg/cm^2 (10% suspension ointment), with an application area of 20 cm^2. The plasma concentration and dorsal skin tissue homogenate concentration of the compound of formula (I) were determined by an LC-MS/MS method."}, "[4]": {"conditions": "Afatinib 50 mg/kg model, 1% ointment on left paw"}, "[5]": {"conditions": "Afatinib 50 mg/kg model, 3% ointment on left paw"}, "[6]": {"conditions": "Afatinib 50 mg/kg model, 10% ointment on left paw"}, "[7]": {"conditions": "Erlotinib 70 mg/kg model, 1% ointment on left paw"}, "[8]": {"conditions": "Erlotinib 70 mg/kg model, 3% ointment on left paw"}, "[9]": {"conditions": "Erlotinib 70 mg/kg model, 10% ointment on left paw"}, "[10]": {"conditions": "Osimertinib 60 mg/kg model, 1% ointment on left paw"}, "[11]": {"conditions": "Osimertinib 60 mg/kg model, 3% ointment on left paw"}, "[12]": {"conditions": "Osimertinib 60 mg/kg model, 10% ointment on left paw"}, "[13]": {"conditions": "Sorafenib 100 mg/kg model, 1% ointment on left paw"}, "[14]": {"conditions": "Sorafenib 100 mg/kg model, 3% ointment on left paw"}, "[15]": {"conditions": "Sorafenib 100 mg/kg model, 10% ointment on left paw"}}, "note": "Where two headings read alike, the source gives them in different places.", "data": [{"compound": "NC(=O)[C@H]1CCCc2c1[nH]c1ccc(Cl)cc21", "note": "[Compound of formula (I), (S)-6-chloro-2,3,4,9-tetrahydro-1H-carbazole-carboxamide]", "values": [{"measurement": "m6A fold change", "setting": "[1]; 400 nM after 50 nM capecitabine", "result": 1.1}, {"measurement": "m6A fold change", "setting": "[1]; 400 nM after 50 nM docetaxel", "result": 1.0}, {"measurement": "m6A fold change", "setting": "[1]; 400 nM after 50 nM osimertinib", "result": 1.2}, {"measurement": "m6A fold change", "setting": "[1]; 400 nM after 50 nM sorafenib", "result": 1.4}, {"measurement": "Incidence rate, left paw", "setting": "[2]; [4]", "result": "3/12 (25%)"}, {"measurement": "Incidence rate, left paw", "setting": "[2]; [5]", "result": "2/12 (17%)"}, {"measurement": "Incidence rate, left paw", "setting": "[2]; [6]", "result": "0/12 (0%)"}, {"measurement": "Incidence rate, right paw", "setting": "[2]; [4]", "result": "9/12 (75%)"}, {"measurement": "Incidence rate, right paw", "setting": "[2]; [5]", "result": "4/12 (33%)"}, {"measurement": "Incidence rate, right paw", "setting": "[2]; [6]", "result": "3/12 (25%)"}, {"measurement": "Incidence rate, left paw", "setting": "[2]; [7]", "result": "3/12 (25%)"}, {"measurement": "Incidence rate, left paw", "setting": "[2]; [8]", "result": "2/12 (17%)"}, {"measurement": "Incidence rate, left paw", "setting": "[2]; [9]", "result": "1/12 (8%)"}, {"measurement": "Incidence rate, right paw", "setting": "[2]; [7]", "result": "10/12 (83%)"}, {"measurement": "Incidence rate, right paw", "setting": "[2]; [8]", "result": "5/12 (42%)"}, {"measurement": "Incidence rate, right paw", "setting": "[2]; [9]", "result": "4/12 (33%)"}, {"measurement": "Incidence rate, left paw", "setting": "[2]; [10]", "result": "2/12 (17%)"}, {"measurement": "Incidence rate, left paw", "setting": "[2]; [11]", "result": "2/12 (17%)"}, {"measurement": "Incidence rate, left paw", "setting": "[2]; [12]", "result": "0/12 (0%)"}, {"measurement": "Incidence rate, right paw", "setting": "[2]; [10]", "result": "8/12 (67%)"}, {"measurement": "Incidence rate, right paw", "setting": "[2]; [11]", "result": "4/12 (33%)"}, {"measurement": "Incidence rate, right paw", "setting": "[2]; [12]", "result": "3/12 (25%)"}, {"measurement": "Incidence rate, left paw", "setting": "[2]; [13]", "result": "2/12 (17%)"}, {"measurement": "Incidence rate, left paw", "setting": "[2]; [14]", "result": "2/12 (17%)"}, {"measurement": "Incidence rate, left paw", "setting": "[2]; [15]", "result": "0/12 (0%)"}, {"measurement": "Incidence rate, right paw", "setting": "[2]; [13]", "result": "9/12 (75%)"}, {"measurement": "Incidence rate, right paw", "setting": "[2]; [14]", "result": "4/12 (33%)"}, {"measurement": "Incidence rate, right paw", "setting": "[2]; [15]", "result": "4/12 (33%)"}, {"measurement": "concentration at 24 h", "setting": "[3]; dorsal skin tissue homogenate, dorsal skin homogenate, 3% suspension ointment, read-out: Drug concentration in skin tissues at 24 h", "result": 161000, "unit": "ng/g"}, {"measurement": "concentration at 24 h", "setting": "[3]; dorsal skin tissue homogenate, dorsal skin homogenate, 10% suspension ointment, read-out: Drug concentration in skin tissues at 24 h", "result": 800000, "unit": "ng/g"}, {"measurement": "concentration at 24 h", "setting": "[3]; plasma, 3% suspension ointment, read-out: Plasma drug concentration at 24 h", "result": 3.21, "unit": "ng/mL"}, {"measurement": "concentration at 24 h", "setting": "[3]; plasma, 10% suspension ointment, read-out: Plasma drug concentration at 24 h", "result": 17.3, "unit": "ng/mL"}]}]}
